Paper PMC10800876, “Evaluation of proline-rich antimicrobial peptides as potential lead structures for novel antimycotics against Cryptococcus neoformans” (Frontiers in Microbiology, 2024)
Converted amounts (≈) assume the structure as drawn. Read-outs that look alike come from different tables or passages of the source. Non-standard residues stand in square brackets, D forms with d. Residues, ends and D or L forms follow the SMILES beside them. *: point of attachment. Orn(α-tetramethylguanidino) = CN(C)C(=N[C@@H](CCCN)C(=O)*)N(C)C; Orn = NCCC[C@H](N)C(=O)O

Assays:
[1] = test system: C. neoformans H99 (serotype A)
[2] = test system: C. neoformans strains 1841, H99, and KN99α; experiment: Broth microdilution assay (MIC); assay type: cell-based, Cryptococcus neoformans
[3] = test system: C. neoformans 1841 (serotype D); conditions: for MIC (mg/L) 1841 24 h / MIC (mg/L) 1841 48 h: 50% SAB in phosphate buffer
[4] = test system: C. neoformans KN99α (serotype A, mating type MATα)
[5] = strains 1841, H99, and KN99α, 24 h
[6] = 1841 (serotype D, 24 h, pH 7.5)
[7] = 1841 (serotype D, 48 h, pH 7.5)
[8] = broth microdilution, 30°C, read after 24 h, n = 6
[9] = broth microdilution, 30°C, read after 48 h, n = 6
[10] = KN99α (serotype A, mating type MATα, 24 h)
[11] = KN99α (serotype A, mating type MATα, 48 h)
[12] = broth microdilution, 50% SAB in phosphate buffer, 30°C, read after 24 h, n = 6
[13] = broth microdilution, 50% SAB in phosphate buffer, 30°C, read after 48 h, n = 6
[14] = broth microdilution, 50% SAB in phosphate buffer pH 7.5, 5 × 10^4 CFU/mL, 30°C, read after 24 h, mean of six replicates (n = 6)
[15] = broth microdilution, 50% SAB in phosphate buffer pH 7.5, 5 × 10^4 CFU/mL, 30°C, read after 48 h, n = 6

Molecule: CC[C@H](C)[C@H](NC(=O)[C@H](Cc1ccc(O)cc1)NC(=O)[C@@H](NC(=O)[C@@H]1CCCN1C(=O)[C@H](CCCNC(=N)N)NC(=O)[C@H](CC(N)=O)NC(=O)[C@H](CC(N)=O)NC(=O)[C@H](CCCN)N=C(N(C)C)N(C)C)C(C)C)C(=O)N1CCC[C@H]1C(=O)N[C@@H](CCCNC(=N)N)C(=O)N1CCC[C@H]1C(=O)N[C@@H](CCCNC(=N)N)C(=O)N1CCC[C@H]1C(=O)N1CCC[C@H]1C(=O)N[C@@H](Cc1c[nH]cn1)C(=O)N1CCC[C@H]1C(=O)N[C@@H](CCCNC(=N)N)C(=O)N[C@@H](CC(C)C)C(=O)O [Api137] ({Orn(α-tetramethylguanidino)}-NNRPVYIPRPRPPHPRL-OH; N-terminus and C-terminus assumed)
- MIC (μmol/L) H99 24 h ([1]; H99 (serotype A, 24 h)): 14 µmol/L (≈ 32.1 µg/mL)
- MIC (μmol/L) H99 48 h ([1]; H99 (serotype A, 48 h)): 28 µmol/L (≈ 64.2 µg/mL)
- MIC [2]: 32 to 64 mg/L
- MIC [2, 5]: 14 to 28 µmol/L
- MIC (μmol/L) 1841 24 h [3, 6]: 14 µmol/L (≈ 32.1 µg/mL)
- MIC (μmol/L) 1841 48 h [3, 7]: 28 µmol/L (≈ 64.2 µg/mL)
- MIC (mg/L) 1841 24 h [3, 8]: 32 mg/L (≈ 14 µM)
- MIC (mg/L) 1841 48 h [3, 9]: 64 mg/L (≈ 27.9 µM)
- MIC (mg/L) KN99α 24 h [4, 10]: 32 to 64 mg/L
- MIC (μmol/L) KN99α 24 h [4, 10]: 14 to 28 µmol/L
- MIC (mg/L) KN99α 48 h [4, 11]: 64 to 128 mg/L
- MIC (μmol/L) KN99α 48 h [4, 11]: 28 to 56 µmol/L

Molecule: CC[C@H](C)[C@H](NC(=O)[C@H](Cc1ccc(O)cc1)NC(=O)[C@@H](NC(=O)[C@@H]1CCCN1C(=O)[C@H](CCCNC(=N)N)NC(=O)[C@H](CC(N)=O)NC(=O)[C@H](CC(N)=O)NC(=O)CN)C(C)C)C(=O)N1CCC[C@H]1C(=O)N[C@@H](CCC(N)=O)C(=O)N1CCC[C@H]1C(=O)N[C@@H](CCCNC(=N)N)C(=O)N1CCC[C@H]1C(=O)N1CCC[C@H]1C(=O)N[C@@H](Cc1c[nH]cn1)C(=O)N1CCC[C@H]1C(=O)N[C@@H](CCCNC(=N)N)C(=O)N[C@@H](CC(C)C)C(=O)O [Apidaecin 1b, reference compound] (H-GNNRPVYIPQPRPPHPRL-OH)
- MIC (μmol/L) H99 24 h ([1]; H99 (serotype A, 24 h)): > 61 µmol/L
- MIC (μmol/L) H99 48 h ([1]; H99 (serotype A, 48 h)): > 61 µmol/L
- MIC [2, 5]: > 61 µmol/L
- MIC (μmol/L) 1841 24 h [3, 6]: > 61 µmol/L
- MIC (μmol/L) 1841 48 h [3, 7]: > 61 µmol/L
- MIC (μmol/L) KN99α 24 h [4, 10]: > 61 µmol/L
- MIC (μmol/L) KN99α 48 h [4, 11]: > 61 µmol/L

Molecule: CC[C@H](C)[C@H](NC(=O)[C@H](CCCCN)NC(=O)[C@H](CCC(=O)O)NC(=O)CNC(=O)CNC(=O)[C@H](CCCCN)NC(=O)[C@H](CCCNC(=N)N)NC(=O)[C@H](CC(C)C)NC(=O)[C@H](CC(C)C)NC(=O)CN)C(=O)NCC(=O)N[C@@H](CCC(=O)O)C(=O)N[C@@H](CCCCN)C(=O)N[C@@H](CC(C)C)C(=O)N[C@@H](CCCCN)C(=O)N[C@@H](CCCCN)C(=O)N[C@H](C(=O)NCC(=O)N[C@@H](CCC(N)=O)C(=O)N[C@@H](CCCCN)C(=O)N[C@H](C(=O)N[C@@H](CCCCN)C(=O)N[C@@H](CC(N)=O)C(=O)N[C@@H](Cc1ccccc1)C(=O)N[C@@H](Cc1ccccc1)C(=O)N[C@@H](CCC(N)=O)C(=O)N[C@@H](CCCCN)C(=O)N[C@@H](CC(C)C)C(=O)N[C@H](C(=O)N1CCC[C@H]1C(=O)N[C@@H](CCC(N)=O)C(=O)N1CCC[C@H]1C(=O)N[C@@H](CCC(=O)O)C(=O)N[C@@H](CCC(N)=O)C(=O)O)C(C)C)[C@@H](C)CC)[C@@H](C)CC [CRAMP, reference compound] (H-GLLRKGGEKIGEKLKKIGQKIKNFFQKLVPQPEQ-OH)
- MIC (μmol/L) H99 24 h ([1]; H99 (serotype A, 24 h)): 2.1 µmol/L (≈ 8.15 µg/mL)
- MIC (μmol/L) H99 48 h ([1]; H99 (serotype A, 48 h)): 2.1 µmol/L (≈ 8.15 µg/mL)
- MIC [2]: 2.1 µmol/L
- MIC (μmol/L) 1841 24 h [3, 6]: 2.1 µmol/L (≈ 8.15 µg/mL)
- MIC (μmol/L) 1841 48 h [3, 7]: 2.1 µmol/L (≈ 8.15 µg/mL)
- MIC (μmol/L) KN99α 24 h [4, 10]: 2.1 µmol/L (≈ 8.15 µg/mL)
- MIC (μmol/L) KN99α 48 h [4, 11]: 2.1 µmol/L (≈ 8.15 µg/mL)

Molecule: CC[C@H](C)[C@H](NC(=O)[C@H](Cc1ccc(O)cc1)NC(=O)[C@H](CC(N)=O)NC(=O)[C@@H](N)CCCN)C(=O)N[C@@H](CCCN)C(=O)N[C@@H](CCCNC(=N)N)C(=O)N1CCC[C@H]1C(=O)N1CCC[C@H]1C(=O)N[C@@H](CCCNC(=N)N)C(=O)N1CCC[C@H]1C(=O)N[C@@H](CCCNC(=N)N)C(=O)N1CCC[C@H]1C(=O)N[C@@H](CC(C)C)C(=O)N[C@@H](Cc1ccc(O)cc1)C(=O)N1CCC[C@H]1C(=O)N1CCC[C@H]1C(=O)N[C@@H](CCCCN)C(=O)N[C@@H](CC(=O)O)C(=O)N[C@H](C(N)=O)C(C)C [Onc72 rev] (H-[Orn]NYI[Orn]RPPRPRPLYPPKDV-NH2)
- MIC (μmol/L) H99 24 h ([1]; H99 (serotype A, 24 h)): 28 µmol/L (≈ 64.6 µg/mL)
- MIC (μmol/L) H99 48 h ([1]; H99 (serotype A, 48 h)): 56 µmol/L (≈ 129 µg/mL)
- MIC (μmol/L) 1841 24 h [3, 6]: 28 µmol/L (≈ 64.6 µg/mL)
- MIC (μmol/L) 1841 48 h [3, 7]: 56 µmol/L (≈ 129 µg/mL)
- MIC (μmol/L) KN99α 24 h [4, 10]: 28 µmol/L (≈ 64.6 µg/mL)
- MIC (μmol/L) KN99α 48 h [4, 11]: 56 µmol/L (≈ 129 µg/mL)

Molecule: gu-OPNRYIRPRLPPHPNRPV-NH2 [Api88 scr]
- MIC (μmol/L) H99 24 h [1, 12]: 28 µmol/L
- MIC (μmol/L) H99 48 h [1, 13]: 56 µmol/L
- MIC (μmol/L) 1841 24 h [3, 14]: 7.0 µmol/L
- MIC (μmol/L) 1841 48 h [3, 15]: 14 to 28 µmol/L
- MIC (mg/L) 1841 24 h [3, 8]: 16 mg/L
- MIC (mg/L) 1841 48 h [3, 9]: 32 to 64 mg/L
- MIC (μmol/L) KN99α 24 h [4, 12]: 28 µmol/L
- MIC (μmol/L) KN99α 48 h [4, 13]: 56 µmol/L

Molecule: CC[C@H](C)[C@H](NC(=O)[C@H](CCCNC(=N)N)NC(=O)[C@H](CC(C)C)NC(=O)[C@@H]1CCCN1C(=O)CN)C(=O)N[C@@H](Cc1ccc(O)cc1)C(=O)N[C@H](C(=O)N1CCC[C@H]1C(=O)N[C@@H](Cc1c[nH]cn1)C(=O)N1CCC[C@H]1C(=O)N1CCC[C@H]1C(=O)N1CCC[C@H]1C(=O)N[C@@H](CCCNC(=N)N)C(=O)N1CCC[C@H]1C(=O)N[C@@H](CC(N)=O)C(=O)N[C@@H](CCC(N)=O)C(=O)N[C@@H](CC(N)=O)C(=O)N[C@@H](CCCNC(=N)N)C(=O)O)C(C)C [Apidaecin 1b scr] (H-GPLRIYVPHPPPRPNQNR-OH)
- MIC (μmol/L) H99 24 h ([1]; H99 (serotype A, 24 h)): > 61 µmol/L
- MIC (μmol/L) H99 48 h ([1]; H99 (serotype A, 48 h)): > 61 µmol/L
- MIC (μmol/L) 1841 24 h [3, 6]: > 61 µmol/L
- MIC (μmol/L) 1841 48 h [3, 7]: > 61 µmol/L
- MIC (μmol/L) KN99α 24 h [4, 10]: > 61 µmol/L
- MIC (μmol/L) KN99α 48 h [4, 11]: > 61 µmol/L

Molecule: gu-LRPHPPRPRPIYVPRNNO-NH2 [Api88 rev]
- MIC (μmol/L) H99 24 h [1, 12]: 7.0 µmol/L
- MIC (μmol/L) H99 48 h [1, 13]: 14 µmol/L
- MIC (μmol/L) 1841 24 h [3, 14]: 7.0 µmol/L
- MIC (μmol/L) 1841 48 h [3, 15]: 7.0 µmol/L
- MIC (μmol/L) KN99α 24 h [4, 12]: 7.0 µmol/L
- MIC (μmol/L) KN99α 48 h [4, 13]: 14 µmol/L

Molecule: CC[C@H](C)[C@H](NC(=O)[C@H](CCCN)NC(=O)[C@H](CCCNC(=N)N)NC(=O)[C@@H]1CCCN1C(=O)[C@@H]1CCCN1C(=O)[C@H](CCCNC(=N)N)NC(=O)[C@@H]1CCCN1C(=O)[C@H](CCCNC(=N)N)NC(=O)[C@@H]1CCCN1C(=O)[C@H](CC(C)C)NC(=O)[C@H](Cc1ccc(O)cc1)NC(=O)[C@@H]1CCCN1C(=O)[C@@H]1CCCN1C(=O)[C@H](CCCCN)NC(=O)[C@H](CC(=O)O)NC(=O)[C@@H](N)C(C)C)C(=O)N[C@@H](Cc1ccc(O)cc1)C(=O)N[C@@H](CC(N)=O)C(=O)N[C@@H](CCCN)C(N)=O [Onc72] (H-VDKPPYLPRPRPPR[Orn]IYN[Orn]-NH2; N-terminus and C-terminus assumed)
- MIC (μmol/L) H99 24 h ([1]; H99 (serotype A, 24 h)): 14 µmol/L (≈ 32.3 µg/mL)
- MIC (mg/L) H99 48 h ([1]; H99 (serotype A, 48 h)): 64 to 128 mg/L
- MIC (μmol/L) H99 48 h ([1]; H99 (serotype A, 48 h)): 28 to 56 µmol/L
- MIC (μmol/L) 1841 24 h [3, 6]: 28 µmol/L (≈ 64.6 µg/mL)
- MIC (μmol/L) 1841 48 h [3, 7]: 56 µmol/L (≈ 129 µg/mL)
- MIC (mg/L) 1841 24 h [3, 8]: 64 mg/L (≈ 27.8 µM)
- MIC (mg/L) 1841 48 h [3, 9]: 128 mg/L (≈ 55.5 µM)
- MIC (mg/L) KN99α 24 h [4, 10]: 32 to 64 mg/L
- MIC (μmol/L) KN99α 24 h [4, 10]: 14 to 28 µmol/L
- MIC (μmol/L) KN99α 48 h [4, 11]: 56 µmol/L (≈ 129 µg/mL)
